ChEMBL document CHEMBL1201862, “PubChem BioAssay data set” (2004)
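How tested: cells in 96-well plates exposed to compound for 48 hours at five concentrations. At the GI50, growth is halved.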 Active and inactive are the calls of the source. Cut-off read from the data, not from the text of the source: active = GI50 up to about 1.1 µM and inactive = higher.

Legend:
Experiment in all cases: NCI anticancer screen, dose series, 48 h
786-0 = tested on: 786-0
A549 = tested on: A549
ACHN = tested on: ACHN
BT-549 = tested on: BT-549
CAKI-1 = tested on: CAKI-1
CCRF-CEM = tested on: CCRF-CEM
COLO 205 = tested on: COLO 205
DU-145 = tested on: DU-145
EKVX = tested on: EKVX
HCC 2998 = tested on: HCC 2998
HCT-116 = tested on: HCT-116
HCT-15 = tested on: HCT-15
HL-60 = tested on: HL-60
HOP-62 = tested on: HOP-62
HOP-92 = tested on: HOP-92
HT-29 = tested on: HT-29
Hs-578T = tested on: Hs-578T
IGROV-1 = tested on: IGROV-1
K562 = tested on: K562
KM12 = tested on: KM12
LOX IMVI = tested on: LOX IMVI
M14 = tested on: M14
MCF7 = tested on: MCF7
MDA-MB-231 = tested on: MDA-MB-231
MDA-MB-435 = tested on: MDA-MB-435
MOLT-4 = tested on: MOLT-4
Malme-3M = tested on: Malme-3M
NCI-H226 = tested on: NCI-H226
NCI-H23 = tested on: NCI-H23
NCI-H460 = tested on: NCI-H460
NCI-H522 = tested on: NCI-H522
NCI/ADR-RES = tested on: NCI/ADR-RES
OVCAR-3 = tested on: OVCAR-3
OVCAR-4 = tested on: OVCAR-4
OVCAR-5 = tested on: OVCAR-5
OVCAR-8 = tested on: OVCAR-8
PC-3 = tested on: PC-3
RPMI-8226 = tested on: RPMI-8226
RXF 393 = tested on: RXF 393
SF-268 = tested on: SF-268
SF-295 = tested on: SF-295
SK-MEL-28 = tested on: SK-MEL-28
SK-MEL-2 = tested on: SK-MEL-2
SK-MEL-5 = tested on: SK-MEL-5
SK-OV-3 = tested on: SK-OV-3
SN12C = tested on: SN12C
SNB-19 = tested on: SNB-19
SNB-75 = tested on: SNB-75
SR = tested on: SR
SW-620 = tested on: SW-620
T47D = tested on: T47D
TK-10 = tested on: TK-10
U-251 = tested on: U-251
UACC-257 = tested on: UACC-257
UACC-62 = tested on: UACC-62
UO-31 = tested on: UO-31

O=C1Nc2cccc3cc(NCC(O)CCl)cc1c23 (stereo unspecified)
GI50 (786-0): 55 µM (inactive) | GI50 (A549): 56.9 µM (inactive) | GI50 (ACHN): 30.3 µM (inactive) | GI50 (BT-549): 39.9 µM (inactive) | GI50 (CAKI-1): 35.2 µM (inactive) | GI50 (CCRF-CEM): 22.2 µM (inactive) | GI50 (COLO 205): 77.4 µM (inactive) | GI50 (DU-145): 97.5 µM (inactive) | GI50 (EKVX): 32.5 µM (inactive) | GI50 (HCC 2998): 91 µM (inactive) | GI50 (HCT-116): 33.7 µM (inactive) | GI50 (HCT-15): 48.9 µM | GI50 (HL-60): > 100 µM (inactive) | GI50 (HOP-62): 49.9 µM (inactive) | GI50 (HOP-92): 55.5 µM (inactive) | GI50 (HT-29): 58.7 µM (inactive) | GI50 (Hs-578T): 38 µM (inactive) | GI50 (IGROV-1): 59 µM (inactive) | GI50 (K562): 91.2 µM (inactive) | GI50 (KM12): 35.2 µM (inactive) | GI50 (LOX IMVI): 27.3 µM (inactive) | GI50 (M14): 56.1 µM (inactive) | GI50 (MCF7): 45.7 µM (inactive) | GI50 (MDA-MB-231): > 100 µM (inactive) | GI50 (MDA-MB-435): 54.2 µM (inactive) | GI50 (MOLT-4): 22.8 µM (inactive) | GI50 (Malme-3M): 88.1 µM (inactive) | GI50 (NCI-H226): > 100 µM (inactive) | GI50 (NCI-H23): > 100 µM (inactive) | GI50 (NCI-H460): > 100 µM (inactive) | GI50 (NCI-H522): 59.2 µM (inactive) | GI50 (NCI/ADR-RES): 64.7 µM (inactive) | GI50 (OVCAR-3): 51.4 µM (inactive) | GI50 (OVCAR-4): > 100 µM (inactive) | GI50 (OVCAR-5): > 100 µM (inactive) | GI50 (OVCAR-8): 48.9 µM (inactive) | GI50 (PC-3): 38.8 µM (inactive) | GI50 (RPMI-8226): > 100 µM (inactive) | GI50 (RXF 393): 76.9 µM (inactive) | GI50 (SF-268): 38.4 µM (inactive) | GI50 (SF-295): 73.1 µM (inactive) | GI50 (SK-MEL-28): > 100 µM (inactive) | GI50 (SK-MEL-2): 21.5 µM (inactive) | GI50 (SK-MEL-5): 49.8 µM (inactive) | GI50 (SK-OV-3): 28.6 µM (inactive) | GI50 (SN12C): 41.8 µM (inactive) | GI50 (SNB-19): 53.6 µM (inactive) | GI50 (SNB-75): 25.4 µM (inactive) | GI50 (SR): 11.7 µM (inactive) | GI50 (SW-620): 40.5 µM (inactive) | GI50 (T47D): 88.5 µM (inactive) | GI50 (TK-10): 75.5 µM (inactive) | GI50 (U-251): 32.9 µM (inactive) | GI50 (UACC-257): > 100 µM (inactive) | GI50 (UACC-62): 49.9 µM (inactive) | GI50 (UO-31): 31.3 µM (inactive)
